Assays:
[1] = system: adenocarcinoma of the stomach, pancreas, and large bowel; conditions: combined FU and radiation vs radiation alone; cited from earlier work
CD8F1 mammary = experiment: Mouse tumor panel: CD8F1 mammary (sc, tumor weight inhibition); type: in vivo; conditions: Q7DX5
Description: (§1) NSC-271674 Against a Panel of a Mouse Tumors
(§2) **Tumor weight inhibition assay.
(§3) Data are expressed as a percentage of the survival time in days or the
(§4) tumor weights in mg of the treated mice divided by the corresponding
(§5) values for the control mice. All testing was performed using both platinu
(§6) compounds in the same experiment. The criteria for activity are as
(§7) follows: confirmed activity (activity from two separate laboratories) of
(§8) % T/C of 150 or more for survival systems and 10% or less for tumor weigh
(§9) inhibition assays. Lower levels of activity such as a % T/C of 125 for
(§10) survival systems and 42% for tumor weight inhibition assays are considere
(§11) statistically significant.

[2] = system: strains of murine leukemia; experiment: Activity against strains of murine leukemia resistant to NSC 119875 (general statement); conditions: mouse, in vivo
L1210/DDP = experiment: In vitro growth inhibition of L1210/DDP (NSC-119875 resistant) cells; type: cell-based, murine
From the text: (§12) The ID50 refers to the concentration of test compound required to
(§13) inhibit the growth of either the L1210 or L1210/DDP (NSC119875) resistant

Colon #38 = experiment: Mouse tumor panel: Colon #38 (sc, tumor weight inhibition); type: in vivo; conditions: D2,9
Description: as §1, §2, §3, §4, §5, §6, §7, §8, §9, §10, §11

P388/DDP = experiment: In vivo activity against P388/DDP leukemia with acquired resistance to NSC-119875; conditions: Days 1,5,9,13, NSC-119875 6.7 mg/kg, NSC-271674 20.0 mg/kg
From the text: P388/DDP refers to a tumor line with acquired resistance to NSC119875.
(§14) Data are expressed as survival in days and as a percentage increase in […]

B16 melanoma = experiment: Mouse tumor panel: B16 melanoma (ip, survival time); type: in vivo; conditions: D1-9
Description: as §1
(§15) *Survival time (mean or median) assay
as §3, §4, §5, §6, §7, §8, §9, §10, §11

Lewis lung = experiment: Mouse tumor panel: Lewis lung (iv, survival time); type: in vivo; conditions: D1-9
Description: as §1, §15, §3, §4, §5, §6, §7, §8, §9, §10, §11

P388 leukemia = experiment: In vivo activity against P388 leukemia; conditions: Days 1,5,9,13, NSC-119875 6.7 mg/kg, NSC-271674 20.0 mg/kg
From the text: as §14

L1210 [3] = experiment: Mouse tumor panel: L1210 (ip, survival time); type: in vivo; conditions: D1-9
Description: as §1, §15, §3, §4, §5, §6, §7, §8, §9, §10, §11

L1210 [4] = experiment: In vitro growth inhibition of L1210 cells; type: cell-based, murine
From the text: as §12, §13

[5] = Renal Toxicity Screening Protocol, toxicity compared to NSC-119875; type: in vivo; conditions: for Body Weight Loss score / Clinical Chemistry - Blood Urea Nitrogen score / Clinical Chemistry - Creatinine score / Clinical Chemistry - Serum Glutamic Pyruvic Transaminase score / Hematology - Hematocrit score / Hematology - White Blood Cell score / Histopathology - Gastrointestinal score / Histopathology - Hematopoietic score / Histopathology - Lymphatic score / Histopathology - Renal score: relative to NSC-119875; for TOTAL SCORE: sum of the ten scores
L1210 leukemia = type: in vivo, mice; conditions: hydroxyurea alone, at least 1000 mg/kg
Description: Compound Pt-307 was administered usually in a dosage regimen of 5-60 mg/kg of body weight. This was given as a single dose or on Days 1, 5, and 9 in the standard National Institutes of Health 10-day testing.
CY was utilized at an optimum 50 mg/kg of body weight (range 25-75 mg/kg) preferably given at Day 3 in the 10-day testing. 5-FU was utilized at 75 mg/kg of body weight (range 50-100 mg/kg) at Day 3. HU was used in a high dosage of at least 1000 mg/kg of body weight (range 1000-1500 mg/kg). The 5-FU and the HU were utilized as ternary compositions only with cyclophosphamide and the platinum compound.
Hydroxyurea is utilized in combination therapy at a high dosage of at least 1000 mg/kg of body weight (range 1000-1500 mg/kg).

Structure (SMILES) | Body Weight Loss score [5] | Clinical Chemistry - Blood Urea Nitrogen score [5] | Clinical Chemistry - Creatinine score [5] | Clinical Chemistry - Serum Glutamic Pyruvic Transaminase score [5] | Hematology - Hematocrit score [5] | Hematology - White Blood Cell score [5] | Histopathology - Gastrointestinal score [5] | Histopathology - Hematopoietic score [5] | Histopathology - Lymphatic score [5] | Histopathology - Renal score [5] | TOTAL SCORE [5] | also measured
O=c1[nH]cc(F)c(=O)[nH]1 [5-FU, 5-fluorouracil] |  |  |  |  |  |  |  |  |  |  |  | mean survival times (in words) [1]: significantly increased
N.N.[Cl][Pt][Cl] [NSC-119875, cisdichlorodiamino platinum II, reference compound] |  |  |  |  |  |  |  |  |  |  |  | % T/C (tumor weight) at optimal dose (CD8F1 mammary; CD8F1 first line, optimal dose NSC-119875 8, NSC-271674 6.25 mg/kg/inj): 0%; % T/C (tumor weight) at optimal dose (CD8F1 mammary; CD8F1 second line, optimal dose NSC-119875 8, NSC-271674 25 mg/kg/inj): 0%; activity against NSC 119875-exhausted strains (in words) [2]: has exhausted its activity; ID50 (concentration required to inhibit the growth of cells by 50 percent) (L1210/DDP): 2.50 µg/mL; % T/C (tumor weight) at optimal dose (Colon #38; Colon #38 first line, optimal dose NSC-119875 8, NSC-271674 12.5 mg/kg/inj): 42%; % T/C (tumor weight) at optimal dose (Colon #38; Colon #38 second line, optimal dose NSC-119875 16, NSC-271674 50 mg/kg/inj): 11%; % ILS (P388/DDP): 41%; Survival (P388/DDP): 15.5 days; % T/C (survival time) at optimal dose (B16 melanoma; B16 first line, optimal dose NSC-119875 2, NSC-271674 6.25 mg/kg/inj): 193%; % T/C (survival time) at optimal dose (B16 melanoma; B16 second line, optimal dose NSC-119875 1, NSC-271674 1.56 mg/kg/inj): 166%; % T/C (survival time) at optimal dose (Lewis lung; Lewis lung first line, optimal dose NSC-119875 2, NSC-271674 3.12 mg/kg/inj): 135%; % T/C (survival time) at optimal dose (Lewis lung; Lewis lung second line, optimal dose NSC-119875 2, NSC-271674 6.25 mg/kg/inj): 177%; % ILS (P388 leukemia): 145%; Survival (P388 leukemia): 32.6 days; % T/C (survival time) at optimal dose (L1210 [3]; L1210 first line, optimal dose NSC-119875 2, NSC-271674 0.78 mg/kg/inj): 151%; % T/C (survival time) at optimal dose (L1210 [3]; L1210 second line, optimal dose NSC-119875 2, NSC-271674 1.56 mg/kg/inj): 182%; ID50 (concentration required to inhibit the growth of cells by 50 percent) (L1210 [4]): 0.05 µg/mL
N.N.O=C([O-])C1(C(=O)[O-])CCC1.[Pt+2] [NSC-241240, diamine [1,1cyclobutanedicarboxylato (2)0,0']platinum] | 1 | 1 | 1 | 3 | 4 | 3 | 1 | 5 | 1 | 1 | 21 | 
NC1CCCCC1N.O=S(=O)([O-])[O-].[Pt+2] (stereo not shown) [NSC-250427] | 2 | 1 | 1 | 5 | 3 | 3 | 1 | 4 | 2 | 2 | 24 | 
CC(C)N.CC(C)N.[Cl-].[Cl-].[OH-].[OH-].[Pt] [NSC-256927, bisisopropylamine-cis-dichloro-transdihydroxy] | 2 | 1 | 1 | 3 | 4 | 3 | 1 | 4 | 4 | 2 | 25 | 
NC(=O)NO [hydroxyurea] |  |  |  |  |  |  |  |  |  |  |  | efficacy against L1210 (in words) (L1210 leukemia): only minimally effective

— US4206207A, “Use of 4-carboxy-phthalato(1,2-diaminocyclohexane)-platinum (II) and alkali metal salts thereof with cyclophosphamide in alleviating L1210 murine leukemia” (priority 1978, dated 1980)
